Results taken from publication PMC10796410 (Cancer Chemotherapy and Pharmacology, 2023).
Several values for one entry are separate records, joined by “and”; a condition that tells them apart may be missing. Identical values can stand only once. Like-named read-outs stand apart in the source and are kept apart here.

Columns and labels:
[1] = Plasma pharmacokinetics of olaparib in rats after a single oral dose, alone or with metformin (UPLC-MS/MS, non-compartmental); format: in vivo, Wistar rats; details: for concentration at 0.083 h / concentration at 0.167 h / concentration at 0.333 h / concentration at 0.5 h / concentration at 0.75 h / concentration at 1 h / concentration at 2 h / concentration at 3 h / concentration at 4 h / concentration at 6 h / concentration at 8 h / concentration at 10 h / concentration at 12 h / concentration at 24 h / AUC(0-inf) / AUC(0-t) / Cmax / Tmax / Vd/F / k el: male, Wistar, rat, plasma; for concentration at 0.083 h / concentration at 0.167 h / concentration at 0.333 h / concentration at 0.5 h / concentration at 0.75 h / concentration at 1 h / concentration at 2 h / concentration at 3 h / concentration at 4 h / concentration at 6 h / concentration at 8 h / concentration at 10 h / concentration at 12 h / concentration at 24 h: oral, group mean, read-out: Cave_ola; for AUC(0-inf) / AUC(0-t) / Cmax / Tmax / Vd/F / k el: po; for AUC(0-inf) / AUC(0-t) / Cmax / Tmax / Vd/F / k el / Cl/F / t0.5: rat plasma, n = 8, mean ± SD
Excerpt: All applicable international, national, and/or institutional guidelines for the care and use of animals were followed. The animals were given a standard diet and water ad libitum, and the experimental protocol for this study was approved by the Local Ethics Committee (No. 45/2022, of 27 May 2022), Poznań University of Life Sciences, Department of Animal Physiology and Biochemistry, Wołyńska 35, 60–637 Poznań, Poland. Adult male Wistar rats (weight 380–530 g) were used in the study. The animals were maintained under standard breeding conditions with a 12/12 h light–dark cycle (lights on at 06.00, lights off at 18.00) at constant room temperature (23 ± 2 °C), relative humidity of 55 ± 10% and given ad libitum access to food and water. The animals were allowed to acclimatize for a week before the beginning of the experiments. The rats were divided into three groups. […] The solution for oral metformin administration was prepared in saline at a single dose of 100 mg/kg. Drugs were orally administered to rats by gavage between 7:00 a.m. and 8:00 a.m. […] The blood samples were centrifuged at 5000 rpm for 10 min, and the plasma was transferred to new centrifuge tubes and then stored at – 80 °C.
A Cortecs UPLC C18 column (2.1 × 50 mm, 1.6 µm, Waters Corporation, Milford, MA, USA) was used for chromatographic separation. The column temperature and injection volume were set at 40 °C and 1 µl, respectively. The mobile phase comprised acetonitrile (eluent A) and 2 mM ammonium acetate in water (eluent B) with 0.1% 98–100% formic acid. The flow rate was maintained at 0.3 ml/min. The gradient elution was as follows: 0–3 min, 5% A; […]; 3–5 min, linear from 5 to 95% A; 5–6 min, linear from 95 to 5% A. The mass spectrometer operated in the multiple reaction monitoring mode.
The maximum plasma concentration (Cmax) and the time to reach the Cmax (tmax) were obtained directly from the measured values. All of the above-mentioned parameters underwent statistical analysis.

[2] = system: epithelial ovarian cancer cell lines; details: drugs given separately or co-administered; cited from earlier work
BCRP = system: BCRP; set-up: method as in earlier work; details: in vitro studies; cited from earlier work
OATP1B1 = system: OATP1B1; set-up: method as in earlier work; details: in vitro studies; cited from earlier work
OCT1 = system: OCT1; set-up: method as in earlier work; details: in vitro studies; cited from earlier work
OCT2 = system: OCT2; set-up: method as in earlier work; details: in vitro studies; cited from earlier work
OAT3 = system: OAT3; set-up: method as in earlier work; details: in vitro studies; cited from earlier work
MATE1 = system: MATE1; set-up: method as in earlier work; details: in vitro studies; cited from earlier work
MATE2K = system: MATE2K; set-up: method as in earlier work; details: in vitro studies; cited from earlier work
[3] = 100 mg/kg, IIIOLA: olaparib 100 mg/kg b.w. oral single dose alone
[4] = 100 mg/kg, IMET+OLA: metformin 100 mg/kg b.w. + olaparib 100 mg/kg b.w. oral single dose
[5] = IIIOLA: olaparib 100 mg/kg b.w. oral single dose alone
[6] = IMET+OLA: metformin 100 mg/kg b.w. + olaparib 100 mg/kg b.w. oral single dose

concentration at 0.083 h ([1]; 100 mg/kg, t 0.083 h, IIIOLA (olaparib alone)): 1080 ng/mL
concentration at 0.167 h ([1]; 100 mg/kg, t 0.167 h, IIIOLA (olaparib alone)): 2220 ng/mL
concentration at 0.333 h ([1]; 100 mg/kg, t 0.333 h, IIIOLA (olaparib alone)): 3790 ng/mL
concentration at 0.5 h ([1]; 100 mg/kg, t 0.500 h, IIIOLA (olaparib alone)): 4590 ng/mL
concentration at 0.75 h ([1]; 100 mg/kg, t 0.750 h, IIIOLA (olaparib alone)): 4440 ng/mL
concentration at 1 h ([1]; 100 mg/kg, t 1 h, IIIOLA (olaparib alone)): 7110 ng/mL
concentration at 2 h ([1]; 100 mg/kg, t 2 h, IIIOLA (olaparib alone)): 6050 ng/mL
concentration at 3 h ([1]; 100 mg/kg, t 3 h, IIIOLA (olaparib alone)): 4140 ng/mL
concentration at 4 h ([1]; 100 mg/kg, t 4 h, IIIOLA (olaparib alone)): 528 ng/mL
concentration at 6 h ([1]; 100 mg/kg, t 6 h, IIIOLA (olaparib alone)): 1460 ng/mL
concentration at 8 h ([1]; 100 mg/kg, t 8 h, IIIOLA (olaparib alone)): 851 ng/mL
concentration at 10 h ([1]; 100 mg/kg, t 10 h, IIIOLA (olaparib alone)): 480 ng/mL
concentration at 12 h ([1]; 100 mg/kg, t 12 h, IIIOLA (olaparib alone)): 196 ng/mL
concentration at 24 h ([1]; 100 mg/kg, t 24 h, IIIOLA (olaparib alone)): 27.2 ng/mL
concentration at 0.083 h ([1]; t 0.083 h, IMET+OLA (metformin and olaparib)): 1530 ng/mL
concentration at 0.167 h ([1]; t 0.167 h, IMET+OLA (metformin and olaparib)): 4270 ng/mL
concentration at 0.333 h ([1]; t 0.333 h, IMET+OLA (metformin and olaparib)): 7190 ng/mL
concentration at 0.5 h ([1]; t 0.500 h, IMET+OLA (metformin and olaparib)): 7240 ng/mL
concentration at 0.75 h ([1]; t 0.750 h, IMET+OLA (metformin and olaparib)): 7770 ng/mL
concentration at 1 h ([1]; t 1 h, IMET+OLA (metformin and olaparib)): 7120 ng/mL
concentration at 2 h ([1]; t 2 h, IMET+OLA (metformin and olaparib)): 6220 ng/mL
concentration at 3 h ([1]; t 3 h, IMET+OLA (metformin and olaparib)): 4080 ng/mL
concentration at 4 h ([1]; t 4 h, IMET+OLA (metformin and olaparib)): 3200 ng/mL
concentration at 6 h ([1]; t 6 h, IMET+OLA (metformin and olaparib)): 1190 ng/mL
concentration at 8 h ([1]; t 8 h, IMET+OLA (metformin and olaparib)): 490 ng/mL
concentration at 10 h ([1]; t 10 h, IMET+OLA (metformin and olaparib)): 155 ng/mL
concentration at 12 h ([1]; t 12 h, IMET+OLA (metformin and olaparib)): 94.4 ng/mL
concentration at 24 h ([1]; t 24 h, IMET+OLA (metformin and olaparib)): 74.8 ng/mL
AUC(0-inf) [1, 3]: 28600 ng·h/mL
AUC(0-t) [1, 3]: 28300 ng·h/mL
Cmax [1, 3]: 8720 ± 6800 ng/mL
Tmax [1, 3]: 1.18 ± 0.91 h
Vd/F [1, 3]: 22.5 ± 24.8 L
k el [1, 3]: 0.000122 s⁻¹
AUC(0-inf) [1, 4]: 29000 ng·h/mL
AUC(0-t) [1, 4]: 28300 ng·h/mL
Cmax [1, 4]: 9420 ± 6330 ng/mL
Tmax [1, 4]: 1.11 ± 0.75 h
Vd/F [1, 4]: 12.5 ± 11.6 L
k el [1, 4]: 9.44e-05 s⁻¹
t0.5 [1, 5]: 4.79 ± 6.06 (126.5) h
t0.5 [1, 6]: 3.18 ± 2.28 (71.7) h
C_ola ([1]; t 0.750 h, IMET+OLA (metformin and olaparib), individual rats 9-16): 3217.4 ng/mL
C_ola ([1]; t 24 h, IIIOLA (olaparib alone), individual rats 1-8): 34.8 ng/mL and 36.4 ng/mL and 10.4 ng/mL
SMILES: O=C(c1cc(Cc2n[nH]c(=O)c3ccccc23)ccc1F)N1CCN(C(=O)C2CC2)CC1 [olaparib, Olaparib]
Cl/F [1, 5]: 7.84 ± 15.21 l/h and 7.84 ± 15.21 (193.9) l/h
Cl/F [1, 6]: 2.62 ± 2.07 l/h and 2.62 ± 2.07 (79.0) l/h
C_ola ([1]; t 0.083 h, IMET+OLA (metformin and olaparib), individual rats 9-16): 399.8 ng/mL and 205.5 ng/mL and 1282.8 ng/mL and 2905.9 ng/mL and 1816.4 ng/mL and 1671.7 ng/mL and 346.2 ng/mL and 3579.7 ng/mL
C_ola ([1]; t 0.167 h, IMET+OLA (metformin and olaparib), individual rats 9-16): 735.8 ng/mL and 409.9 ng/mL and 5081.5 ng/mL and 9225.7 ng/mL and 5056.5 ng/mL and 3857.8 ng/mL and 1362.6 ng/mL and 8409.9 ng/mL
C_ola ([1]; t 0.333 h, IMET+OLA (metformin and olaparib), individual rats 9-16): 1895.1 ng/mL and 1378.1 ng/mL and 6639.2 ng/mL and 14659.7 ng/mL and 8931.6 ng/mL and 11236.6 ng/mL and 1385.6 ng/mL and 11426.1 ng/mL
C_ola ([1]; t 0.500 h, IIIOLA (olaparib alone), individual rats 1-8): 3742.4 ng/mL and 535.2 ng/mL and 12507.8 ng/mL and 7237.7 ng/mL and 6302.7 ng/mL and 1652.9 ng/mL and 418.2 ng/mL and 8077.9 ng/mL
C_ola ([1]; t 0.500 h, IMET+OLA (metformin and olaparib), individual rats 9-16): 3714.2 ng/mL and 1709.6 ng/mL and 7002.5 ng/mL and 13973.1 ng/mL and 6376.6 ng/mL and 773.6 ng/mL and 17095.7 ng/mL
C_ola ([1]; t 0.750 h, IIIOLA (olaparib alone), individual rats 1-8): 3804.2 ng/mL and 2586.8 ng/mL and 15300.4 ng/mL and 11009.1 ng/mL and 7991.7 ng/mL and 1511.2 ng/mL and 355.6 ng/mL and 8277 ng/mL
C_ola ([1]; t 1 h, IIIOLA (olaparib alone), individual rats 1-8): 6130.9 ng/mL and 3469.6 ng/mL and 13706 ng/mL and 16348.7 ng/mL and 9042.2 ng/mL and 1418.9 ng/mL and 698.2 ng/mL and 6102.6 ng/mL
C_ola ([1]; t 2 h, IIIOLA (olaparib alone), individual rats 1-8): 8834.3 ng/mL and 2628.7 ng/mL and 19817.4 ng/mL and 10845 ng/mL and 3432.4 ng/mL and 1456.7 ng/mL and 45.1 ng/mL and 1370.2 ng/mL
C_ola ([1]; t 3 h, IIIOLA (olaparib alone), individual rats 1-8): 10275 ng/mL and 2662.1 ng/mL and 12843.4 ng/mL and 4820.1 ng/mL and 969 ng/mL and 1168.9 ng/mL and 6.7 ng/mL and 409.4 ng/mL
C_ola ([1]; t 4 h, IIIOLA (olaparib alone), individual rats 1-8): 437.9 ng/mL and 948.8 ng/mL and 197 ng/mL
C_ola ([1]; t 6 h, IIIOLA (olaparib alone), individual rats 1-8): 5403.6 ng/mL and 829.1 ng/mL and 4359.8 ng/mL and 822.4 ng/mL and 31.7 ng/mL and 206.3 ng/mL and 4.8 ng/mL and 35.7 ng/mL
C_ola ([1]; t 8 h, IIIOLA (olaparib alone), individual rats 1-8): 2408.4 ng/mL and 295.6 ng/mL and 2024.1 ng/mL and 243.9 ng/mL and 17.4 ng/mL and 116.3 ng/mL
C_ola ([1]; t 10 h, IIIOLA (olaparib alone), individual rats 1-8): 701.7 ng/mL and 75.4 ng/mL and 1071 ng/mL and 70.2 ng/mL
C_ola ([1]; t 12 h, IIIOLA (olaparib alone), individual rats 1-8): 362.3 ng/mL and 53.7 ng/mL and 337 ng/mL and 32.3 ng/mL
percentage of late apoptotic cells [2]: 5.1%
inhibition of BCRP (BCRP): inhibits
inhibition of OATP1B1 (OATP1B1): inhibits
inhibition of OCT1 (OCT1): inhibits
inhibition of OCT2 (OCT2): inhibits
inhibition of OAT3 (OAT3): inhibits
inhibition of MATE1 (MATE1): inhibits
inhibition of MATE2K (MATE2K): inhibits
